{"source": "patent US12447170B2", "about": "“Use of maribavir in treatment regimens” (priority 2021, dated 2025)", "key": {"CYP2A6": {"biological_target": "T1, CYP2A6 (Homo sapiens, UniProt P11509)", "T1 construct": "from tissue; host or cells: human liver microsomes", "T1 sequence (P11509 1-494)": "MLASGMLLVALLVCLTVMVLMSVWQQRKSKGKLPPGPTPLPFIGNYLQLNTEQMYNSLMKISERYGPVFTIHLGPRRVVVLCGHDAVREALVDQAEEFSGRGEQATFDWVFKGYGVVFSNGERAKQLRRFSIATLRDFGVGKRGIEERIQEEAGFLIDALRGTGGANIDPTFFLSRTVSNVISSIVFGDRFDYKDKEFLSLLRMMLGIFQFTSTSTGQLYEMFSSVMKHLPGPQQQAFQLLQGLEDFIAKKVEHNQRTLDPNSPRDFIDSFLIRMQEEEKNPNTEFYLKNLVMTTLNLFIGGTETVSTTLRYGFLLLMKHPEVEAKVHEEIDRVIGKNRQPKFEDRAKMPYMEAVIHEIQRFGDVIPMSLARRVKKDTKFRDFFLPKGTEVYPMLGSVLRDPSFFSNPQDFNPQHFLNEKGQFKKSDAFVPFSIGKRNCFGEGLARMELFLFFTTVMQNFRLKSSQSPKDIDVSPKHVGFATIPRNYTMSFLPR", "assay": "Reversible CYP inhibition in human liver microsomes (HLM)", "assay_type": "in vitro ADME", "conditions": "up to 100 μM", "experimental": "(§1) HLM were used to evaluate maribavir's half maximal inhibitory concentration (IC50) on inhibition of activities of nine CYP isoforms. Probe substrates were phenacetin (CYP1A2), coumarin (CYP2A6), bupropion (CYP2B6), paclitaxel (CYP2C8), tolbutamide (CYP2C9), (S)-mephenytoin (CYP2C19), dextromethorphan (CYP2D6), clorzoxazone (CYP2E1), and midazolam and testosterone (CYP3A4).\n(§2) CYP activities with 0, 0.1, 0.3, 1, 3, 10, 30, and 100 μM of maribavir were evaluated."}, "CYP2B6": {"biological_target": "T2, CYP2B6 (Homo sapiens, UniProt P20813)", "T2 construct": "from tissue; host or cells: human liver microsomes", "T2 sequence (P20813 1-491)": "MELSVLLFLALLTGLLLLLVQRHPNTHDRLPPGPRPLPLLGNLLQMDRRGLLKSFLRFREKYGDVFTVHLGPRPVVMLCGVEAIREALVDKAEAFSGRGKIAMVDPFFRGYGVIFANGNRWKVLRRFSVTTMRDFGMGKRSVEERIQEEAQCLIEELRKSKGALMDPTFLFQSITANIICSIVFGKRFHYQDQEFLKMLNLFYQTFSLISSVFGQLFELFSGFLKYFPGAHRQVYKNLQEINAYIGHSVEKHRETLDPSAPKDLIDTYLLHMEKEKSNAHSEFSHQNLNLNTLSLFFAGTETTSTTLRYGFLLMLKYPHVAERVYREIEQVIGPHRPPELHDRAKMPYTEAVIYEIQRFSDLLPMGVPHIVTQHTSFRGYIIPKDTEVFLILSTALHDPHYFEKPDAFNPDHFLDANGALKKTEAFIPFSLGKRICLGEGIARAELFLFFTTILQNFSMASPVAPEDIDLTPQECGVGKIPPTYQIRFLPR", "assay": "Reversible CYP inhibition in human liver microsomes (HLM)", "assay_type": "in vitro ADME", "conditions": "up to 100 μM", "experimental": "as §1, §2"}, "CYP2E1": {"biological_target": "T3, CYP2E1 (Homo sapiens, UniProt P05181)", "T3 construct": "from tissue; host or cells: human liver microsomes", "T3 sequence (P05181 whole entry)": "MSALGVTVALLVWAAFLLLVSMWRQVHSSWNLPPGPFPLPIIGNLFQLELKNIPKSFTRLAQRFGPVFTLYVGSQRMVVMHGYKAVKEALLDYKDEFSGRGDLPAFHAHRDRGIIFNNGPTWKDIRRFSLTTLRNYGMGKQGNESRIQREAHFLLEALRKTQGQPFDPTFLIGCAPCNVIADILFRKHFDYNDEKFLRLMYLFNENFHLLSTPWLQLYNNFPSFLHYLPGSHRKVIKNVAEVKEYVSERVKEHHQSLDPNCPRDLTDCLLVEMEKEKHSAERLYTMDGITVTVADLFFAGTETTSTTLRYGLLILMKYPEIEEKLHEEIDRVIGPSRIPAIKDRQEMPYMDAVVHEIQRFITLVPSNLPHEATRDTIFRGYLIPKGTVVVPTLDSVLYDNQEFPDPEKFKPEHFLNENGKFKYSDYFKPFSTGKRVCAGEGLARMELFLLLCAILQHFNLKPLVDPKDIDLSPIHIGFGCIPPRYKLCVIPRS", "assay": "Reversible CYP inhibition in human liver microsomes (HLM)", "assay_type": "in vitro ADME", "conditions": "up to 100 μM", "experimental": "as §1, §2"}, "CYP3A4": {"biological_target": "T4, CYP3A4 (Homo sapiens, UniProt P08684)", "T4 construct": "from tissue; host or cells: human liver microsomes", "T4 sequence (P08684 whole entry)": "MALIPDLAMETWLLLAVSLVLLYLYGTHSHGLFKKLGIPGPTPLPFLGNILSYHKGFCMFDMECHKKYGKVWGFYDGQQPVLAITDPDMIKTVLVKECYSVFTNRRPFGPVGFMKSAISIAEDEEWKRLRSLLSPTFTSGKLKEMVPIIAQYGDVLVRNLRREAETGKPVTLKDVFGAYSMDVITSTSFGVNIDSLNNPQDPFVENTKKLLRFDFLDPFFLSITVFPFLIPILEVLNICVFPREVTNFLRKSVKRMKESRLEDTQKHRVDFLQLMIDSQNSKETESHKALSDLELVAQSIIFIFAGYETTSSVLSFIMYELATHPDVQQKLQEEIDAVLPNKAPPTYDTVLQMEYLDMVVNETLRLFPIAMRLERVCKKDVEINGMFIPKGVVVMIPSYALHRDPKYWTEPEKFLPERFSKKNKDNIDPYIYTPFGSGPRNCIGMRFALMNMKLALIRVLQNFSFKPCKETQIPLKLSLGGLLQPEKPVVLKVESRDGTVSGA", "assay": "Reversible CYP inhibition in human liver microsomes (HLM)", "assay_type": "in vitro ADME", "conditions": "up to 100 μM", "experimental": "as §1, §2"}, "clinical": {"assay": "clinical", "conditions": "human, in vivo"}, "[1]": {"assay": "Observed clinical interaction of maribavir with ketoconazole in healthy subjects", "assay_type": "in vivo, human", "conditions": "for AUC(0-inf) / Cmax: human, in vivo, 400 mg", "experimental": "A comparison of observed and predicted plasma concentrations of maribavir following a single oral dose of 400 mg administered in the absence of ketoconazole (a CYP3A4 inhibitor) and 1 hour after a single 400 mg dose of ketoconazole to healthy subjects was performed."}, "[2]": {"assay": "PBPK simulation of maribavir with rifampicin", "parameters": "species or system human", "experimental": "A comparison of observed and predicted plasma concentrations of maribavir following multiple oral doses of 400 mg administered in the absence of rifampicin and during concurrent treatment with rifampicin was performed. Subjects took maribavir 400 mg BID on Days 1-3 (5 doses), then rifampicin 600 mg QD on Days 4 through 12, followed by both maribavir 400 mg (BID) and rifampicin 600 mg QD on Days 13 and 14, with final doses of maribavir and rifampicin on the morning of Day 15. […]"}, "[3]": {"assay": "Drug interaction summary: effect of co-administered drugs on maribavir pharmacokinetics (Tables 1-A, 1-B)", "from_the_text": "Drug interaction studies were summarized based on Example 2 and other available data (e.g., in vitro and clinical data)."}, "[4]": {"assay": "Phase 2 studies for treatment of CMV infection/diseases: safety/tolerability", "assay_type": "in vivo, human", "conditions": "doses up to 1200 mg BID"}, "CYP3A": {"biological_target": "CYP3A (Homo sapiens, UniProt P08684)", "sequence (P08684 2-503)": "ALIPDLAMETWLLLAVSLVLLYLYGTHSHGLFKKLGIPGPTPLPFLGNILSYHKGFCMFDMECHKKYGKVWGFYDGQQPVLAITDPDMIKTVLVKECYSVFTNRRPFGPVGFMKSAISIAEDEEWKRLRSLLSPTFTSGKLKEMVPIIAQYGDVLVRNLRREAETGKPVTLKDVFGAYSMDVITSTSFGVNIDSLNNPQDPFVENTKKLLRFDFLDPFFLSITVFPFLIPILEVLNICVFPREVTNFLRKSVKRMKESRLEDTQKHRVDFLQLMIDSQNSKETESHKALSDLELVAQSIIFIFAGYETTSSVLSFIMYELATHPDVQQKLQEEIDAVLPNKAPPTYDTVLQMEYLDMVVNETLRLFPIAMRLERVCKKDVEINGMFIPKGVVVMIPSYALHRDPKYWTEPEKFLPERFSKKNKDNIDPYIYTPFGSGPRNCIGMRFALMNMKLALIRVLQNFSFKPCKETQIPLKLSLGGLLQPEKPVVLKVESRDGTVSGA", "assay": "Time-dependent inhibition of CYP3A in HLM (IC50 shift and enzyme inactivation kinetics)", "assay_type": "in vitro ADME", "parameters": "from tissue; host or cells: human liver microsomes", "conditions": "human liver microsomes; for kinact: read-out: kinact (maximum enzyme inactivation rate constant), TDI of CYP3A (converted)", "experimental": "Time-dependent inhibition (TDI) potentials for various CYP enzymes were evaluated by a 30 minute pre-incubation of maribavir with HLM in the presence and absence of nicotinamide-adenine dinucleotide […] (NADPH) followed by a CYP enzyme activity assay.\nEnzyme inactivation kinetics of maribavir for the TDI of CYP3A, with midazolam and testosterone as probe substrates, was evaluated by pre-incubation of HLM with maribavir at various concentrations with NADPH for six different pre-incubation time frames. CYP3A activity was measured by determining the formation of CYP3A probe metabolite. Inhibitor concentration at half maximal enzyme inactivation (KI), and maximum enzyme inactivation rate constant (kinact), were estimated using non-linear least-square regression."}, "[5]": {"conditions": "maribavir 400 mg BID + rifampicin 600 mg QD"}, "[6]": {"conditions": "maribavir 400 mg BID with/without rifampicin 600 mg QD"}, "[7]": {"conditions": "Aluminum hydroxide and magnesium hydroxide antacid 20 mL single dose, maribavir 100 mg single dose"}, "[8]": {"conditions": "Ketoconazole 400 mg single dose, maribavir 400 mg single dose"}, "[9]": {"conditions": "Rifampin 600 mg once daily, maribavir 400 mg twice daily"}}, "note": "Entries after “also recorded” stand apart in the source; their conditions may differ. Where two headings read alike, the source gives them in different places."}
{"smiles": "CC(C)Nc1nc2cc(Cl)c(Cl)cc2n1[C@H]1O[C@@H](CO)[C@H](O)[C@@H]1O", "note": "[maribavir, (2S,3S,4R,5S)-2-(5,6-dichloro-2-(isopropylamino)-1H-benzo[d]imidazol-1-yl)-5-(hydroxymethyl)tetrahydrofuran-3,4-diol]", "values": [{"measurement": "reversible inhibition of CYP2A6", "setting": "CYP2A6", "value": "not a reversible inhibitor; also recorded: no significant inhibition"}, {"measurement": "reversible inhibition of CYP2B6", "setting": "CYP2B6", "value": "not a reversible inhibitor; also recorded: no significant inhibition"}, {"measurement": "reversible inhibition of CYP2E1", "setting": "CYP2E1", "value": "not a reversible inhibitor; also recorded: no significant inhibition"}, {"measurement": "reversible inhibition of CYP3A4", "setting": "CYP3A4", "value": "not a reversible inhibitor; also recorded: no significant inhibition"}, {"measurement": "half-life", "setting": "clinical", "value": "5 to 7", "unit": "h"}, {"measurement": "CL renal", "setting": "clinical; po", "value": 0.85, "unit": "mL/min"}, {"measurement": "effect of crushing the tablet or antacids on bioavailability", "setting": "clinical; po", "value": "wasn't affected"}, {"measurement": "effect of food on exposure", "setting": "clinical; po", "value": "unaffected"}, {"measurement": "time to peak concentrations", "setting": "clinical; po", "value": "1 to 3", "unit": "h"}, {"measurement": "AUC(0-inf)", "setting": "[1]; observed Geometric mean", "value": 183, "unit": "µg·h/mL"}, {"measurement": "AUC(0-inf)", "setting": "[1]; observed Mean", "value": 194, "unit": "µg·h/mL"}, {"measurement": "Cmax", "setting": "[1]; observed Geometric mean", "value": 21300, "unit": "ng/mL"}, {"measurement": "Cmax", "setting": "[1]; observed Mean", "value": 21800, "unit": "ng/mL"}, {"measurement": "Ratio AUC(0-∞), observed Geometric mean", "setting": "[1]; with/without ketoconazole", "value": 1.53}, {"measurement": "Ratio AUC(0-∞), observed Mean", "setting": "[1]; with/without ketoconazole", "value": 1.55}, {"measurement": "Ratio Cmax, observed Geometric mean", "setting": "[1]; with/without ketoconazole", "value": 1.10}, {"measurement": "Ratio Cmax, observed Mean", "setting": "[1]; with/without ketoconazole", "value": 1.12}, {"measurement": "AUC(0-12 h), RATIO GEOMETRIC MEAN PREDICTED/OBSERVED", "setting": "[2]; [5]", "value": 0.88}, {"measurement": "AUC(0-12 h), RATIO MEAN PREDICTED/OBSERVED", "setting": "[2]; [5]", "value": 1.00}, {"measurement": "C12 h, RATIO GEOMETRIC MEAN PREDICTED/OBSERVED", "setting": "[2]; [5]", "value": 0.22}, {"measurement": "C12 h, RATIO MEAN PREDICTED/OBSERVED", "setting": "[2]; [5]", "value": 0.83}, {"measurement": "Cmax, RATIO GEOMETRIC MEAN PREDICTED/OBSERVED", "setting": "[2]; [5]", "value": 0.75}, {"measurement": "Cmax, RATIO MEAN PREDICTED/OBSERVED", "setting": "[2]; [5]", "value": 0.78}, {"measurement": "Ratio AUC(0-12 h), RATIO GEOMETRIC MEAN PREDICTED/OBSERVED", "setting": "[2]; [6]", "value": 0.85}, {"measurement": "Ratio AUC(0-12 h), RATIO MEAN PREDICTED/OBSERVED", "setting": "[2]; [6]", "value": 0.91}, {"measurement": "Ratio C12 h, RATIO GEOMETRIC MEAN PREDICTED/OBSERVED", "setting": "[2]; [6]", "value": 0.24}, {"measurement": "Ratio C12 h, RATIO MEAN PREDICTED/OBSERVED", "setting": "[2]; [6]", "value": 0.56}, {"measurement": "Ratio Cmax, RATIO GEOMETRIC MEAN PREDICTED/OBSERVED", "setting": "[2]; [6]", "value": 0.89}, {"measurement": "Ratio Cmax, RATIO MEAN PREDICTED/OBSERVED", "setting": "[2]; [6]", "value": 0.87}, {"measurement": "Geometric Mean Ratio of Maribavir PK with/without Co-administered Drug (No Effect = 1.00), AUC", "setting": "[3]; [7]", "value": 0.89}, {"measurement": "Geometric Mean Ratio of Maribavir PK with/without Co-administered Drug (No Effect = 1.00), Cmax", "setting": "[3]; [7]", "value": 0.84}, {"measurement": "Geometric Mean Ratio of Maribavir PK with/without Co-administered Drug (No Effect = 1.00), AUC", "setting": "[3]; [8]", "value": 1.53}, {"measurement": "Geometric Mean Ratio of Maribavir PK with/without Co-administered Drug (No Effect = 1.00), Cmax", "setting": "[3]; [8]", "value": 1.10}, {"measurement": "Geometric Mean Ratio of Maribavir PK with/without Co-administered Drug (No Effect = 1.00), AUC", "setting": "[3]; [9]", "value": 0.40}, {"measurement": "Geometric Mean Ratio of Maribavir PK with/without Co-administered Drug (No Effect = 1.00), Cmax", "setting": "[3]; [9]", "value": 0.61}, {"measurement": "Geometric Mean Ratio of Maribavir PK with/without Co-administered Drug (No Effect = 1.00), Ctau", "setting": "[3]; Rifampin 600 mg once daily, maribavir 400 mg twice daily, tau 12 hours", "value": 0.18}, {"measurement": "safety/tolerability profile", "setting": "[4]", "value": "no limiting toxicity"}, {"measurement": "KI (inactivation)", "setting": "CYP3A; probe midazolam", "value": 41.2, "unit": "µM"}, {"measurement": "kinact", "setting": "CYP3A; probe midazolam, midazolam as substrate", "value": 0.000195, "unit": "s⁻¹"}, {"measurement": "KI (inactivation)", "setting": "CYP3A; probe testosterone", "value": 167, "unit": "µM"}, {"measurement": "kinact", "setting": "CYP3A; probe testosterone, testosterone as substrate", "value": 0.000595, "unit": "s⁻¹"}]}
